Experimental data: patent publication EP4790066A1, “GLP-1R/GIPR/GCGR TRIPLE AGONIST ANALOGUE AND USE THEREOF” (Shenzhen Bay Laboratory, priority 2023, dated 2025)
*1 amine or outer side, *2 acyl side, *3 side chain or, on linkers, in order; H or OH if unused. Where a SMILES comes first, the peptide text is derived from it. Bridges are numbered along the chain shown (N, C = ends). [ ]: non-standard residue; d: D form. X1 = O=C(O)CCCCCCCCCCCCCCCCCCC(=O)N[C@@H](CCCCNC(=O)COCCOCCNC(=O)COCCOCCNC(=O)CCC(=O)N(CCNC(=O)C[*:1])CCNC(=O)C[*:2])C(=O)O; αMeL = CC(C)C[C@](C)(N)C(=O)O; Dab = NCC[C@H](N)C(=O)O; Aib = CC(C)(N)C(=O)O

Legend:
Format in all cases: cell-based
GLP-1R = biological target: T1, GLP-1R (Homo sapiens, UniProt P43220); assay: CreLuc method (CRE-luciferase reporter), HEK293/pGM-CREB-L-Luc/GLP-1R pool; conditions: 6 h incubation, read-out: EC50 (pM) for each receptor GLP-1R
T1 construct: expressed in transfected cells
Method: (§1) 1. Insulinotropic analogues can bind to the target receptor on the cell membrane, activate the cAMP response element (CRE), and initiate the expression of downstream luciferase. The expression level is positively correlated with the biological activity of the analogue being tested. After activation, luciferase substrate is added for chemiluminescence detection, and the luminescence intensity is determined to characterize the biological activity of the test compounds. Therefore, the target peptide derivatives (or polypeptide derivatives, i.e., TG1-TG94) prepared in Example 1 and Example 2 can be tested by the CreLuc method. The specific steps are as follows: The stably transfected cell lines HEK293/pGM-CREB-L-Luc/GLP-1R pool, HEK293/pGM-CREB-L-Luc/GIPR pool, and 293HEK/pGM-CREB-L-Luc/GCGR pool were constructed. […] The corresponding test cells were digested (1 min), dispersed by pipetting, and centrifuged (1000 rpm, 5 min). The culture medium was discarded, and the cells were resuspended in freestyle medium, centrifuged again, collected, and counted. The cells were then diluted to a cell density of 5 x 10^5 cells/mL and then added to the detection wells of a 384-well plate (40 µL/20,000 cells/well). Echo was used to add the corresponding analyte dilution series. The cell plate was incubated at 37°C and 5% CO2 for 6 h, then ONE-GLO (20 µL/well) was added for detection. It was kept in the dark for 3 min, then a chemiluminescent microplate reader was used for determination. The plate was read within 30 min, and the determination results were recorded. […] Table 3: EC50 values for target peptide derivatives

GIPR = biological target: T2, GIPR (Homo sapiens, UniProt P48546); assay: CreLuc method (CRE-luciferase reporter), HEK293/pGM-CREB-L-Luc/GIPR pool; conditions: 6 h incubation, read-out: EC50 (pM) for each receptor GIPR
T2 construct: expressed in transfected cells
T2 sequence (P48546 22-466): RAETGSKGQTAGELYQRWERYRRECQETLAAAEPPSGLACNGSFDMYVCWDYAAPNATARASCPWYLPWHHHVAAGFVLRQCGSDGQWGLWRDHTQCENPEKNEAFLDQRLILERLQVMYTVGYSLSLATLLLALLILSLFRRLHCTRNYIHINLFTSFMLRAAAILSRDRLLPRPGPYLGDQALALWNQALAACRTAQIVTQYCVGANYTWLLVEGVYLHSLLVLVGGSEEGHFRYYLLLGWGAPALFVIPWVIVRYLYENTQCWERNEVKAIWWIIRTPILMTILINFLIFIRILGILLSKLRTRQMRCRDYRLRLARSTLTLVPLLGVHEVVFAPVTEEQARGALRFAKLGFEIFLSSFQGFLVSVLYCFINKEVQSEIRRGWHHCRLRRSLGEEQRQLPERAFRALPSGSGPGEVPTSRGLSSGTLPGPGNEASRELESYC
Method: as §1

GCGR = biological target: T3, GCGR (Homo sapiens, UniProt P47871); assay: CreLuc method (CRE-luciferase reporter), 293HEK/pGM-CREB-L-Luc/GCGR pool; conditions: 6 h incubation, read-out: EC50 (pM) for each receptor GCGR
T3 construct: expressed in transfected cells
Method: as §1

T1 sequence (P43220 24-463, species assumed): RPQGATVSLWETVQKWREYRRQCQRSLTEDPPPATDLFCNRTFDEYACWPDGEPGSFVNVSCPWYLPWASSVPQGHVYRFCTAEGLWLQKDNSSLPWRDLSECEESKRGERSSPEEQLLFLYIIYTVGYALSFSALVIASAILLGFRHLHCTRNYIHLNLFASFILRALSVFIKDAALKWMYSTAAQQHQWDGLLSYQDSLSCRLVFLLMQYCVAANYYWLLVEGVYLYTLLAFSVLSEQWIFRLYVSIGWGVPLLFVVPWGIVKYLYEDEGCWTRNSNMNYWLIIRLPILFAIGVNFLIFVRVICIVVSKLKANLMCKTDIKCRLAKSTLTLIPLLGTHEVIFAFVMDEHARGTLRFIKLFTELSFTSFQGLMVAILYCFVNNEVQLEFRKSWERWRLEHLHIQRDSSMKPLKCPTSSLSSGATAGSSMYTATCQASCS
T3 sequence (P47871 26-477, species assumed): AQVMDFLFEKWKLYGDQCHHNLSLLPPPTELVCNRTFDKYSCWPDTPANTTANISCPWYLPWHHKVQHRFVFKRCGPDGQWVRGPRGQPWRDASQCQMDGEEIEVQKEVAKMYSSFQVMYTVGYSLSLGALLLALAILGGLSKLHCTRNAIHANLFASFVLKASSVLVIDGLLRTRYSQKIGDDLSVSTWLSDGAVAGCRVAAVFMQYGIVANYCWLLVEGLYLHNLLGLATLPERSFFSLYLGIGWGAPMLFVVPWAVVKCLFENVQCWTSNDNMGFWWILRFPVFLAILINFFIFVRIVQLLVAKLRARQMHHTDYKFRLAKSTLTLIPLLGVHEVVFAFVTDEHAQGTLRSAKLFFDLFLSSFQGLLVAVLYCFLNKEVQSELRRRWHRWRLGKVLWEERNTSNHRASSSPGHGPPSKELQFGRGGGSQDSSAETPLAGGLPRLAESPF

SMILES | EC50 (GLP-1R) [pM] | EC50 (GIPR) [pM] | EC50 (GCGR) [pM]
CC[C@H](C)[C@@H]1NC(=O)[C@H](Cc2ccccc2)NC(=O)[C@@H](NC(=O)C(C)(C)NC(=O)[C@H](CCC(N)=O)NC(=O)[C@H](C)NC(=O)[C@H](CCCCNC(C)=O)NC(=O)[C@H](CCCCN)NC(=O)[C@H](CC(=O)O)NC(=O)[C@H](CC(C)C)NC(=O)[C@](C)(CC(C)C)NC(=O)[C@@H](NC(=O)[C@H](CO)NC(=O)[C@H](Cc2ccc(O)cc2)NC(=O)[C@H](CC(=O)O)NC(=O)[C@H](CO)NC(=O)[C@@H](NC(=O)[C@H](Cc2ccccc2)NC(=O)[C@@H](NC(=O)CNC(=O)[C@H](CCNC(C)=O)NC(=O)C(C)(C)NC(=O)[C@@H](N)Cc2ccc(O)cc2)[C@@H](C)O)[C@@H](C)O)[C@@H](C)CC)CSCC(=O)NCCN(C(=O)CCC(=O)NCCOCCOCC(=O)NCCOCCOCC(=O)NCCCC[C@H](NC(=O)CCCCCCCCCCCCCCCCCCC(=O)O)C(=O)O)CCNC(=O)CSC[C@@H](C(=O)NCC(=O)NCC(=O)N2CCC[C@H]2C(=O)N[C@@H](CO)C(=O)N[C@@H](CO)C(=O)NCC(=O)N[C@@H](C)C(=O)N2CCC[C@H]2C(=O)N2CCC[C@H]2C(=O)N2CCC[C@H]2C(=O)N[C@@H](CO)C(N)=O)NC(=O)[C@H](CC(C)C)NC(=O)[C@H](CC(C)C)NC(=O)[C@H](Cc2ccc(O)cc2)NC(=O)[C@H](CCC(=O)O)NC1=O [TG41] (H-Y[Aib][Dab](Ac)GTFTSDYSI[αMeL]LDKK(Ac)AQ[Aib]CFIEYLLCGGPSSGAPPPS-NH2; linker 21-28 via X1) | 282 | 19.6 | 76.3
CC[C@H](C)[C@@H]1NC(=O)[C@H](Cc2ccccc2)NC(=O)[C@@H](NC(=O)C(C)(C)NC(=O)[C@H](CCC(N)=O)NC(=O)[C@H](C)NC(=O)[C@H](CCCCNC(C)=O)NC(=O)[C@H](CCCCN)NC(=O)[C@H](CC(=O)O)NC(=O)[C@H](CC(C)C)NC(=O)[C@](C)(CC(C)C)NC(=O)[C@@H](NC(=O)[C@H](CO)NC(=O)[C@H](Cc2ccc(O)cc2)NC(=O)[C@H](CC(=O)O)NC(=O)[C@H](CO)NC(=O)[C@@H](NC(=O)[C@H](Cc2ccccc2)NC(=O)[C@@H](NC(=O)CNC(=O)[C@H](Cc2c[nH]cn2)NC(=O)C(C)(C)NC(=O)[C@@H](N)Cc2ccc(O)cc2)[C@@H](C)O)[C@@H](C)O)[C@@H](C)CC)CSCC(=O)NCCN(C(=O)CCC(=O)NCCOCCOCC(=O)NCCOCCOCC(=O)NCCCC[C@H](NC(=O)CCCCCCCCCCCCCCCCCCC(=O)O)C(=O)O)CCNC(=O)CSC[C@@H](C(=O)NCC(=O)NCC(=O)N2CCC[C@H]2C(=O)N[C@@H](CO)C(=O)N[C@@H](CO)C(=O)NCC(=O)N[C@@H](C)C(=O)N2CCC[C@H]2C(=O)N2CCC[C@H]2C(=O)N2CCC[C@H]2C(=O)N[C@@H](CO)C(N)=O)NC(=O)[C@H](CC(C)C)NC(=O)[C@H](CC(C)C)NC(=O)[C@H](Cc2ccc(O)cc2)NC(=O)[C@H](CCC(=O)O)NC1=O [TG42] | 477 | 21.3 | 99.4
